In ChEMBL document CHEMBL1641501, “Discovery of selective irreversible inhibitors for EGFR-T790M” (Bioorg Med Chem Lett, 2011):
Calls of active or inactive are those of the source. The calls are words filed in the database; no cut-off is given here.

Assays:
PC-9 [1] = test: Antiproliferative activity against EGFR-deficient human PC9 cells; assay type: functional, cell-based
PC-9 [2] = test: Antiproliferative activity against growth-resistant human PC9 cells expressing EGFR E746_A750/T790M mutant; assay type: functional, cell-based
[3] = molecular target: Tyrosine-protein kinase Blk (Homo sapiens) (UniProt P51451); test: Inhibition of Blk transfected with TEL fusion in mouse BA/F3 cells; assay type: cell-based; conditions: BaF3
Tyrosine-protein kinase Blk (Homo sapiens), sequence (P51451 2-505 limits assumed): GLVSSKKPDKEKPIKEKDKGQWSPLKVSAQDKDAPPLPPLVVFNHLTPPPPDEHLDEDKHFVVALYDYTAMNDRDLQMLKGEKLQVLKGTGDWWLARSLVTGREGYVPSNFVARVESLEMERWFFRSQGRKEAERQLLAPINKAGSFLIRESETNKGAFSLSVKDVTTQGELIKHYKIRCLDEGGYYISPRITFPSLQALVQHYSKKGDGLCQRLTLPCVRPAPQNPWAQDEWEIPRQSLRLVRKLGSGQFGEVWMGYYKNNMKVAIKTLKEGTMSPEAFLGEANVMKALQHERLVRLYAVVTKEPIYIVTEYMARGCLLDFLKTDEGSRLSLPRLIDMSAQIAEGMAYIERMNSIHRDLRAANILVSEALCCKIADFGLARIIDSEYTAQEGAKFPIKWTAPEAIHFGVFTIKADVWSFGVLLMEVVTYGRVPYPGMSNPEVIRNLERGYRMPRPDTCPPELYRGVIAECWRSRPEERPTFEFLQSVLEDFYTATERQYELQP

[4] = Antiproliferative activity against mouse BA/F3 cells transfected with EGFR E746_A750_del/T790M/C797S mutant; assay type: functional, cell-based; conditions: BaF3
[5] = molecular target: T1, Tyrosine-protein kinase JAK3 (Homo sapiens) (UniProt P52333); test: Inhibition of Jak3 transfected with TEL fusion in mouse BA/F3 cells; assay type: cell-based; conditions: BaF3
T1 sequence (whole entry): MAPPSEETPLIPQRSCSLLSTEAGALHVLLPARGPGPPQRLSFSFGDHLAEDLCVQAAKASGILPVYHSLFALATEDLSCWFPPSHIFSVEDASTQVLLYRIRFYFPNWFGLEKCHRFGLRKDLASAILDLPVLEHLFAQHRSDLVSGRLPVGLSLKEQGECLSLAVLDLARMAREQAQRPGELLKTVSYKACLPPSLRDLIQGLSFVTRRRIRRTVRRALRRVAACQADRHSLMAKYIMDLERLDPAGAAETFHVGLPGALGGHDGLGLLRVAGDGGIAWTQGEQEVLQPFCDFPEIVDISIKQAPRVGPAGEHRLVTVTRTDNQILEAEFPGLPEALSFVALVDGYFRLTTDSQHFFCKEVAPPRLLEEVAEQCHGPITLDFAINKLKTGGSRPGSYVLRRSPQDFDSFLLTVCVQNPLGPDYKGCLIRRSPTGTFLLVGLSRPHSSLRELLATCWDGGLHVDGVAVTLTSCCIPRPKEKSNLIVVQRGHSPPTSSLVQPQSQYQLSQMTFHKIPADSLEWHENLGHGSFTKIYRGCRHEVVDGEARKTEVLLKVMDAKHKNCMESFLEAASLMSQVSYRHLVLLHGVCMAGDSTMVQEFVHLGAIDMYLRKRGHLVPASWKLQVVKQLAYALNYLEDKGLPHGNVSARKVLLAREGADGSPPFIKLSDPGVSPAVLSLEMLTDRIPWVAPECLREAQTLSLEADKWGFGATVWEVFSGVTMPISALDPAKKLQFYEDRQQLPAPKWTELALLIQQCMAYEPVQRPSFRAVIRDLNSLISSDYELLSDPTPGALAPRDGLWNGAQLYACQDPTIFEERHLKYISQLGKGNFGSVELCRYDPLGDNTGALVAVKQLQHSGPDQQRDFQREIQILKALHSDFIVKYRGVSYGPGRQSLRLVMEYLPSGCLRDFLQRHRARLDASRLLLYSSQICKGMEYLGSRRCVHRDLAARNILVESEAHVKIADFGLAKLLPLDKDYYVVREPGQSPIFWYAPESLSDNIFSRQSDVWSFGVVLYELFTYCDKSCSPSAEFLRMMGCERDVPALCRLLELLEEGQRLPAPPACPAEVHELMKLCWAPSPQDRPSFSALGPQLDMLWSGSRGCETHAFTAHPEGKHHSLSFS

[6] = Antiproliferative activity against mouse BA/F3 cells transfected with EGFR E746_A750_del/T790M mutant; assay type: functional, cell-based; conditions: BaF3
[7] = Antiproliferative activity against mouse BA/F3 cells transfected with EGFR E746_A750/T790M mutant; assay type: functional, cell-based; conditions: BaF3
[8] = Antiproliferative activity against mouse BA/F3 cells transfected with EGFR L858R/T790M/C797S mutant; assay type: functional, cell-based; conditions: BaF3
[9] = Antiproliferative activity against mouse BA/F3 cells transfected with EGFR L858R/T790M mutant; assay type: functional, cell-based; conditions: BaF3
[10] = molecular target: T2, Cytoplasmic tyrosine-protein kinase BMX (Homo sapiens) (UniProt P51813); test: Inhibition of Bmx transfected with TEL fusion in mouse BA/F3 cells; assay type: cell-based; conditions: BaF3
T2 sequence (whole entry): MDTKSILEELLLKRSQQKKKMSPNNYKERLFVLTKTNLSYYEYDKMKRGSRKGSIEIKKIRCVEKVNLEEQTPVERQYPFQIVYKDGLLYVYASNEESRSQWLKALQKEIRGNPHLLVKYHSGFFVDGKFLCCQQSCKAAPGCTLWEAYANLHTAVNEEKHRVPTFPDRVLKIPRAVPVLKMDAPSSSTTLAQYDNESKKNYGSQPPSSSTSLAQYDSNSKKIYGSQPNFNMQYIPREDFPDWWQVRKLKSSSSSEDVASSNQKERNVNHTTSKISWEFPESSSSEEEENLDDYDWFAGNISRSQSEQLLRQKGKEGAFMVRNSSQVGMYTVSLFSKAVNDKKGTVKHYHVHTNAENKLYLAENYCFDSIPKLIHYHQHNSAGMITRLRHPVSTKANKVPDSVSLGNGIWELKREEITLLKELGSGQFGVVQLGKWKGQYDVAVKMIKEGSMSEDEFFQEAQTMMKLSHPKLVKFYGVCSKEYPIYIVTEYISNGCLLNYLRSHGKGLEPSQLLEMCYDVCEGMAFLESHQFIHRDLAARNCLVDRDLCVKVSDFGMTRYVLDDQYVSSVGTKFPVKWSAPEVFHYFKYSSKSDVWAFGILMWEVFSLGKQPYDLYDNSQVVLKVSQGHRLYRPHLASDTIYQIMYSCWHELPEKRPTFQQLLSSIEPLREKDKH

Compound	EC50 (PC-9 [1])	EC50 (PC-9 [2])	further results
C=CC(=O)Nc1cccc(Oc2ncnc3[nH]cc(-c4cccnc4)c23)c1	500 nM	500 nM	–
C=CC(=O)N1CCCC(N(C)c2nc(Nc3ccc(N(C)C(=O)CC)cc3)nc3[nH]cnc23)C1 (centres undefined)	900 nM	6000 nM	–
C=CC(=O)Nc1cccc(Oc2nc(Nc3ccc(N4CCC(N5CCN(C)CC5)CC4)cc3OC)ncc2Cl)c1	80 nM	100 nM	–
C=CC(=O)Nc1cccc(Oc2nc(Nc3ccc(CN4CCN(C)CC4)cc3C(F)(F)F)ncc2Cl)c1	–	420 nM	–
C=CC(=O)Nc1cccc(Oc2nc(Nc3ccc(CN4CCN(C)CC4)cc3)ncc2Cl)c1	–	30 nM	–
C=CC(=O)Nc1cccc(Oc2nc(Nc3ccc(C(=O)N4CCN(C)CC4)cc3OC)ncc2Cl)c1	> 1000 nM	> 1000 nM	–
C=CC(=O)Nc1cccc(Oc2nc(Nc3ccc(C(=O)NC4CCN(C)CC4)cc3OC)ncc2Cl)c1	500 nM	800 nM	–
C=CC(=O)Nc1cccc(Oc2nc(Nc3ccc(N4CCN(C)CC4)cc3)ncc2C(F)(F)F)c1	700 nM	800 nM	–
C=CC(=O)Nc1cccc(Oc2nc(Nc3ccc(N4CCN(C)CC4)cc3OC)ncc2Cl)c1	36 nM	14 nM	inhibition [3]: Active; EC50 [4]: > 3300 nM; inhibition [5]: Active; EC50 [6]: 2 nM; EC50 [7]: 1290 nM; EC50 [8]: > 3300 nM; EC50 [9]: 8 nM; inhibition [10]: Active
C=CC(=O)Nc1cccc(Oc2nc(Nc3ccc(C4CCN(C)CC4)cc3OC)ncc2Cl)c1	100 nM	40 nM	–
C=CC(=O)Nc1cccc(Nc2nc(Nc3ccc(N4CCN(C)CC4)cc3OC)ncc2Cl)c1	40 nM	20 nM	–
C=CC(=O)Nc1cccc(Oc2nc(Nc3ccc(C(=O)NCCN4CCOCC4)cc3OC)ncc2Cl)c1	–	500 nM	–
C=CC(=O)Nc1cccc(Oc2nc(Nc3ccc(N4CCN(C)CC4)cc3)ncc2Br)c1	800 nM	900 nM	–
C=CC(=O)Nc1cccc(Oc2nc(Nc3ccc(-c4ccncc4)cc3OC)ncc2Cl)c1	–	900 nM	–
C=CC(=O)Nc1cccc(Oc2ccnc(Nc3ccc(N4CCN(C)CC4)cc3)n2)c1	80 nM	> 1000 nM	–
C=CC(=O)Nc1cccc(Oc2nc(Nc3ccc(N4CCN(C)CC4)cc3OC)ncc2Cl)c1Cl	> 1000 nM	> 1000 nM	–
C=CC(=O)N1CCCC(Nc2nc(Nc3ccc(C(=O)N4CCN(C)CC4)cc3)nc3[nH]cnc23)C1 (centres undefined)	10000 nM	10000 nM	–
C=CC(=O)Nc1cccc(Oc2nc(Nc3ccc(C4=CCN(C)CC4)cc3OC)ncc2Cl)c1	–	200 nM	–
C=CC(=O)Nc1ccc(Oc2ncnc3[nH]cc(-c4cccnc4)c23)cc1	6000 nM	6000 nM	–
C=CC(=O)Nc1cccc(Oc2nc(Nc3ccc(N4CCN(C)CC4)cc3OC)ncc2Cl)c1F	–	31 nM	–

Compound	EC50 (PC-9 [1])	EC50 (PC-9 [2])	further results
C=CC(=O)Nc1cccc(Oc2nc(Nc3ccc(C4CCCN(C)C4)cc3OC)ncc2Cl)c1 (centres undefined)	100 nM	200 nM	–
C=CC(=O)Nc1cccc(Oc2nc(Nc3ccc(N4CCN(C)CC4)cc3)nc3[nH]cnc23)c1	300 nM	600 nM	–
C=CC(=O)Nc1cccc(Oc2[nH]cnc3ncc(-c4cnc5ccccc5c4)c2-3)c1	6000 nM	8000 nM	–
C=CC(=O)Nc1cccc(Oc2nc(Nc3ccc(CCN4CCN(C)CC4)cc3)ncc2Cl)c1	–	8 nM	–
C=CC(=O)Nc1cc(F)cc(Oc2nc(Nc3ccc(N4CCN(C)CC4)cc3OC)ncc2Cl)c1	–	20 nM	–
C=CC(=O)Nc1ccc(Oc2ncnc3[nH]cc(-c4cnc5ccccc5c4)c23)cc1	10000 nM	10000 nM	–
C=CC(=O)Nc1cccc(Oc2nc(Nc3ccc(N4CCN(C)CC4)cc3)ncc2Cl)c1	15 nM	3 nM	–
C=CC(=O)N1CCCC(Nc2nc(Nc3ccc(N4CCN(C)CC4)cc3)nc3[nH]cnc23)C1 (centres undefined)	1000 nM	5000 nM	–
C=CC(=O)Nc1cccc(Oc2nc(Nc3ccc(N4CCC(O)CC4)cc3OC)ncc2Cl)c1	200 nM	800 nM	–
C=CC(=O)Nc1cccc(Sc2nc(Nc3ccc(N4CCN(C)CC4)cc3)ncc2Cl)c1	6 nM	8 nM	–
C=CC(=O)Nc1cccc(Oc2nc(Nc3ccc(C(=O)N4CCN(C)CC4)cc3)ncc2Cl)c1	800 nM	800 nM	–
C=CC(=O)Nc1cccc(Oc2nc(Nc3ccc(N4CCN(C)CC4)cc3C(F)(F)F)ncc2Cl)c1	–	90 nM	–
C=CC(=O)N1CCCC(Nc2nc(Nc3ccc(N(C)C(=O)CC)cc3)nc3[nH]cnc23)C1 (centres undefined)	7000 nM	10000 nM	–
C=CC(=O)Nc1cccc(Oc2nc(Nc3ccc(N4CCOCC4)cc3OC)ncc2Cl)c1	–	150 nM	–
C=CC(=O)Nc1cccc(Oc2nc(Nc3ccc(C(=O)NC4CCN(C)CC4)cc3)ncc2Cl)c1	800 nM	1000 nM	–
C=CC(=O)Nc1cccc(Sc2nc(Nc3ccc(N4CCN(C)CC4)cc3OC)ncc2Cl)c1	20 nM	20 nM	–
C=CC(=O)Nc1cccc(Oc2nc(Nc3ccc(CC(=O)N4CCN(C)CC4)cc3)ncc2Cl)c1	–	50 nM	–
C=CC(=O)Nc1cccc(Oc2ncnc3[nH]cc(-c4ccc(OC)cc4)c23)c1	6000 nM	6000 nM	–
C=CC(=O)Nc1cccc(Oc2nc(Nc3ccc(F)cc3OC)ncc2Cl)c1	–	800 nM	–
